Experimental data as given in US11370769B2, “TRPC5 inhibitors and methods of using same” (BOARD OF REGENTS OF THE UNIVERSITY OF NEBRASKA, priority 2017, dated 2022).

Test system: Dahl S rats
Assay: Dahl salt-sensitive rat model of hypertension-induced FSGS
Type: in vivo
Protocol: Animals and chemicals: Littermates of wild-type (WT) and AT1R TgNeph-hAT1R/185 transgenic (AT1R Tg) rats were housed under a controlled environment with a 12-hour light-dark cycle and access to food and water ad libitum, unless otherwise described. All animal experiments were performed in accordance to the guidelines established and approved by the Animal Care and Use Committee at Brigham and Women's Hospital, Harvard Medical School (Animal Protocol No. 01538). AT1R Tg rats were placed in the Onset cohort when measured proteinuria was >5 mg/day (at approximately 12 weeks of age) on two separate 24-hour urine collections. AT1R Tg rats were placed in the Advanced cohort when measured proteinuria was >25 mg/day (at approximately 18 weeks of age) on two separate 24-hour urine collections. These thresholds were determined after detailed histologic and phenotypic characterization of AT1R Tg rats compared to WT littermates (all combined, n=91 WT rats and n=122 AT1R Tg rats were studied). The Dahl salt-sensitive (S) inbred strain is maintained at University of Mississippi Medical Center (UMMC) and was originally obtained from University of Toledo-College of Medicine (SS/Jr). All animal experiments performed at UMMC were in accordance to the guidelines established and approved by the Institutional Animal Care and Use Committee. Animals used for this studied were provided either low-salt diet [TD7034, 0.3% NaCl and/or high-salt diet [TD94217, 2.0% NaCl] from Harlan Teklad, Madison, Wis. For onset study, at 4 weeks of age, groups of age-matched male S were weaned to the low-salt diet and divided into two groups: vehicle (n=8) and AC1903 groups (n=8). At 6 weeks of age, both groups were placed on the high-salt diet and concurrently treated with either vehicle or AC1903 for 1-week (Onset). For Advanced study, similarly at 4 weeks of age, groups of age-matched male S were weaned to the low-salt diet and divided into two groups: vehicle (n=9) and AC1903 groups (n=11). At 6 weeks of age, both groups were placed on the high-salt diet. At week 7, concurrent with high-salt diet, animals were treated with either vehicle or AC1903 for 1-week (Advanced). At the conclusion of each study, animals were initially anesthetized under 2-3% isoflurane/O2 gas, a catheter attached to a fluid filled pressure transducer was placed in the aorta, isoflurane gas was reduced to 1.5%, and mean arterial pressure was measured for ˜5 min period using PowerLab 4/30 system (ADI Instruments, Co) as done previously. All chemicals were purchased from Sigma-Aldrich unless otherwise described.
Chemical preparation and IP administration: ML204 and AC1903 were prepared from powder in a single batch for each in vivo experiment to avoid variability. Immediately prior to injections, ML204 or AC1903 solution was placed on a heated shaker at 48° C. and 800 RPM. Vehicle was prepared in the same fashion. Injection volume was determined by body weight (2 mL vehicle/compound per kg body weight). Body weight was measured at the time of injection.
Urine collection and assay: For urine collections, rats were housed individually in a metabolic cage supplied with food and water. Urine was collected into a 50 mL falcon tube for 24 hours. Total urine volume was measured and then centrifuged at 3,200 rcf for 10 min at 4° C. Albumin quantification was done according to previously published protocol (11), involving multiple dilutions of urine from each animal compared to Bovine Serum Albumin (BSA) standards. Coumassie Blue stained gels were quantified by densitometry using ImageJ software. As an additional control, the rat ELISA Albumin kit (Exocell) was used for albumin quantification according to the manufacturer's recommendations and yielded the same results. Urine protein was measured using QuanTtest® Red Total Protein Assay System (Quantimetrix, Redondo Beach, Calif.) and expressed as mg protein/24 hours. […]

c1ccc(Cn2c(NCc3ccco3)nc3ccccc32)cc1 [AC1903]
numbers of podocytes per glomerulus (AC1903 treated Dahl S rats, stated similar to WT and AC1903-treated AT1R Tg rats): approximately 120 podocytes/glom
BUN (AC1903 treatment): no effect
body weight (AC1903 treatment): no effect
creatinine (AC1903 treatment): no effect
mean arterial pressure (MAP) (AC1903 treatment): did not affect
numbers of podocytes per glomerulus compared to vehicle-treated controls (Advanced, AC1903 50 mg/kg): higher
proteinuria (Advanced: 50 mg/kg, treatment day 7 to day 14 of 2% NaCl): significant suppression of proteinuria
rate of progressive proteinuria (Onset: 50 mg/kg twice daily i.p. from start of 2% NaCl diet, 1 week): significantly reduced
